Results as given in patent US9131688B2, “Strigolactam derivatives as plant growth regulating compounds” (Syngenta Participations AG, priority 2011, dated 2015).

How the values were obtained:
Format in all cases: in vivo
[1] = system: Orobanche cumana Wallr. seeds (race 'F'); assay: Germination of preconditioned Orobanche cumana seeds on glass fiber filter paper in petri dishes; settings: for Germination (%): mean, N = 5 x 100 seeds; for Germination inducing effect on Orobanche cumana seeds (summary in words): summary of Tables 3 to 6
Protocol: The effect of compounds of Formula (I) on germination of Orobanche cumana Wallr. seeds was evaluated on glass fiber filter paper (GFFP) in petri dishes. Seeds were preconditioned at moisture and suitable temperature to become responsive to the specific chemical germination stimulants.
Test compounds were dissolved in DMSO (10 000 mg 1^−1) and stored at room temperature in a desiccators with desiccants. The stock solutions were dissolved with deionised water to the appropriate final test concentration.
Seeds of O. cumana race ‘F’ were collected from a sunflower field in Manzanilla (Seville, Spain) in 2006 (IN146) and 2008 (IN153), respectively and stored at room temperature. To separate seeds from heavy organic debris, a modified sucrose floatation technique as described by Hartman & Tanimonure (Plant Disease (1991), 75, p. 494) was applied. Seeds were filled into a separation funnel and stirred in water. When seeds floated to the surface, the water fraction containing heavy debris was discarded. Seeds were re-suspended in 2.5M sucrose solution (specific gravity of 1.20) and heavy debris was allowed to settle down for 60 min. After removing debris, seeds were disinfected in 1% sodium hypochlorite solution and 0.025% (v/v) Tween 20 for 2 min. The seeds were decanted onto two layers of cheesecloth, rinsed with sterile deionised water and re-suspended in sterile deionised water. Two ml of the seed suspension containing approximately 150-400 seeds were spread evenly on two layers of sterile glass fiber filter paper disc ([…]) in Petri dishes (Ø9 cm). After wetting the discs with 3 ml sterile deionised water, petri dishes were sealed with parafilm. Seeds were incubated for 10 days at 20° C. in the dark for seed conditioning. The upper disc with conditioned seeds was briefly dried, transferred to a petri dish lined with a dry GFFP disc, and wetted with 6 ml of the appropriate test solution. The compounds of formula (I) were tested at concentrations of 0.001, 0.01, and 0.1 mg 1^−1. The strigolactone analogue GR24 was included as positive control and 0.001% DMSO as negative control. All treatments were tested in five replicates. Seeds were re-incubated at 20° C. in the dark and examined for germination 10 days later. The radicles of germinated seeds were stained for 5 min with blue ink (MIGROS, Switzerland) in 5% acetic acid according to Long et al. Seed Science Research (2008), 18, p. 125). After staining, seeds were photographed using a camera stand mounted with a digital SLR camera (Canon EOS 5D). Germination of 100 seeds per replicate was evaluated on digital images. Seeds were considered germinated when the radicle protruded from the seed coat.

[2] = system: Orobanche cumana Wallr. seeds (race 'F'); assay: as above; settings: Table 5; 1.0 mg l^-1; seed lot IN153; mean, N = 5 x 100 seeds
[3] = system: Brassica oleracea cv Botrytis (common cauliflower) seeds; assay: Standard paper germination test for Brassica (cauliflower seeds, suboptimal conditions); settings: 25 μM, 20° C., dark; for stimulation (extra germination compared to the DMSO treatment, expressed as percentage of the DMSO treatment): tropical cauliflower 3C150, seed batch 11B295; for acceleration (hours faster than the DMSO treatment to reach 50% of total germination) / t50 (time needed to reach 50% of total germination): tropical cauliflower 3C150, seed batch 11B552
Protocol: The effect of compounds of Formula (I) on the germination of Brassica oleracea cv Botrytis or common cauliflower was tested on two types of cauliflowers: temperate types and tropical types. These two types were chosen because they display different sensitivities to the light conditions and temperature during germination. Germination of a sensitive temperate type is inhibited by light at 10° C. while for the tropical types germination at 20° is stimulated by the presence of light.
The temperate seed batches tested are part of commercially produced seed batches of various varieties which are known to be sensitive to light at 10° C. These seeds were harvested and cleaned according standard commercial procedures. Ready seed batches were used (Ready indicates the processing level of these seeds: they have been cleaned and sized but received no other treatments). The tropical seed batches tested are part of seed batches produced as basic seed (for maintenance of the parental line) and were processed accordingly.
Germination was assessed using the standard paper germination test for Brassica: Fifty seeds were placed on blue germination paper, which was moistened with the appropriate solutions, in closed oblong germination boxes. Each condition was tested in duplo. Germination boxes were placed in controlled germination cabinets with the appropriate temperature and light conditions. Germination of seeds was counted at regular intervals. Seeds were considered to be germinated when the radical had protruded the testa and endosperm (radical size approximately 1 mm). Germination kinetics were analyzed using the Germinator analysis tool in order to obtain the parameters: Gmax (maximum germination) and t50 (time needed to reach 50% of the Gmax). The Germinator analysis tool is an add-in in for excel developed by the University of Wageningen: Joosen, R. V. L., J. Kodde, et al. (2010). (“Germinator: A Software Package for High-Throughput Scoring and Curve Fitting of Arabidopsis Seed Germination.” The Plant Journal 62(1): 148-159.)
Test compounds were dissolved in DMSO at a concentration of 50 mM and stored at −20° C. The strigolactone analogue GR24 (commercially available as a racemic mixture of 2 diastereoisomers, referred to as “synthetic strigolactone GR-24” and first prepared by Johnson A. W. & all, Journal of the Chemical Society, Perkin Transactions 1, 1981, page 1734-1743) was included as positive control. Germination solutions were prepared by diluting the stock solutions with demineralized water till 25 μM. As control solutions demineralized water and a 0.05% v/v DMSO solution were used.

[4] = Table 5, 0.01 mg l^-1, seed lot IN153
[5] = Table 5, 0.1 mg l^-1, seed lot IN153
[6] = Table 3, 0.001 mg l^-1, seed lot IN146, 10 days at 20° C. in the dark
[7] = Table 3, 0.01 mg l^-1, seed lot IN146
[8] = Table 3, 0.1 mg l^-1, seed lot IN146
[9] = Table 7, tropical cauliflower 3C150, seed batch 11B295 (Chili 2011)
[10] = Table 8, tropical cauliflower 3C150, seed batch 11B552 (South Africa 2010)
[11] = Table 4, 0.001 mg l^-1, seed lot IN153
[12] = Table 4, 0.01 mg l^-1, seed lot IN153
[13] = Table 4, 0.1 mg l^-1, seed lot IN153
[14] = Table 6, 0.001 mg l^-1, seed lot IN153
[15] = Table 6, 0.01 mg l^-1, seed lot IN153
[16] = Table 6, 0.1 mg l^-1, seed lot IN153

| SMILES | Germination (%) [1, 4] | Germination (%) [1, 5] | Germination inducing effect on Orobanche cumana seeds (summary in words) [1] | Germination (%) [2] | Germination (%) [1, 6] | Germination (%) [1, 7] | Germination (%) [1, 8] | Gmax (total germination) [3, 9] | stimulation (extra germination compared to the DMSO treatment, expressed as percentage of the DMSO treatment) ([3]; Table 7) | Gmax (total germination) [3, 10] | acceleration (hours faster than the DMSO treatment to reach 50% of total germination) ([3]; Table 8) | t50 (time needed to reach 50% of total germination) ([3]; Table 8) | Germination (%) [1, 11] | Germination (%) [1, 12] | Germination (%) [1, 13] | Germination (%) [1, 14] | Germination (%) [1, 15] | Germination (%) [1, 16] | Germination (%) ([1]; Table 5, 0.001 mg l^-1, seed lot IN153) |
| --- | --- | --- | --- | --- | --- | --- | --- | --- | --- | --- | --- | --- | --- | --- | --- | --- | --- | --- | --- |
| CC1=C[C@@H](O/C=C2/C(=O)N[C@@H]3C4=CCCC[C@H]4C[C@H]23)OC1=O [Compound B2, (3E,3aR,4aS,8bS)-3-[[(2S)-4-methyl-5-oxo-2H-furan-2-yl]oxymethylene]-1,3a,4,4a,5,6,7,8b-octahydroindeno[1,2-b]pyrrol-2-one] | 80.4% | 89.2% | germination inducing effect | 91.8% | – | – | – | – | – | – | – | – | – | – | – | – | – | – | – |
| CC1=CC(O/C=C2/C(=O)N[C@@H]3C4=C(CCCC4(C)C)C[C@H]23)OC1=O (stereo partly drawn) [Compound P1, (3E,3aR,8bS)-8,8-dimethyl-3-[(4-methyl-5-oxo-2H-furan-2-yl)oxymethylene]-3a,4,5,6,7,8b-hexahydro-1H-indeno[1,2-b]pyrrol-2-one] | – | – | germination inducing effect | – | 88% | 88% | 88.4% | 55.0% | 80.0% | 95.0% | 6.6 h | 74.3 h | – | – | – | – | – | – | – |
| CC1=C[C@H](O/C=C2/C(=O)N[C@@H]3C4=CCCC[C@H]4C[C@H]23)OC1=O [Compound P2, (3E,3aR,4aS,8bS)-3-[[(2R)-4-methyl-5-oxo-2H-furan-2-yl]oxymethylene]-1,3a,4,4a,5,6,7,8b-octahydroindeno[1,2-b]pyrrol-2-one] | – | – | germination inducing effect | – | – | – | – | – | – | – | – | – | 92.6% | 91.0% | 91.0% | – | – | – | – |
| CC1=CC(O/C=C2/C(=O)N[C@@H]3C4=CCC[C@H]4C[C@H]23)OC1=O (some centres unmarked) [Compound P4, 3E 3-[[4-methyl-5-oxo-2H-furan-2-yl]oxymethylene]-1,3a,4,4a,5,6,7b-hexahydropentaleno[1,2-b]pyrrol-2-one] | – | – | germination inducing effect | – | – | – | – | – | – | – | – | – | – | – | – | 73.4% | 82.6% | 68.4% | – |
| CC1=C[C@H](O/C=C2/C(=O)N(C(=O)OC(C)(C)C)[C@@H]3C4=CCC[C@H]4C[C@H]23)OC1=O [Compound P5, Tert-butyl (3E,3aR,4aS,7bS)-3-[[4-methyl-5-oxo-2H-furan-2-yl]oxymethylene]-2-oxo-3a,4,4a,5,6,7b-hexahydropentaleno[1,2-b]pyrrole-1-carboxylate] | – | – | – | – | – | – | – | – | – | – | – | – | – | – | – | 90.6% | 80.8% | 89.6% | – |
| CC1=C[C@H](O/C=C2/C(=O)O[C@@H]3c4ccccc4C[C@H]23)OC1=O [GR24, reference compound] | 86.6% | 95.2% | – | – | 20.4% | 61.0% | 86.2% | 73.0% | 140.0% | 100.0% | 8.7 h | 72.2 h | 67% | 65% | 78.4% | 26% | 51% | 84.2% | 88% |
